Source: US5240934A, “Quinoline derivatives” (priority 1990, dated 1993)
Counter-ions that a name gives are not always drawn.

Assays:
[1] = test system: Amnesia Induced by Scopolamine in Mice; assay: Effects on amnesia induced by scopolamine in mice (passive avoidance test); type: in vivo, Male ddy mice; conditions: p.o., 30 min before scopolamine 1 mg/kg i.p.
Procedure: Male ddy mice, 6-7 week old, were used as subjects. A conventional two-compartment box was used for the passive avoidance test.
Tested compounds were given p.o. 30 minutes before scopolamine (1 mg/kg, i.p.). At 30 minutes after the scopolamine treatment, scrambled foot-schock (2 mA for 3 seconds) was applied to the mouse immediately after entry into the dark compartment. Retention was measured 6 hours after the training and was expressed as the mean latency to enter the dark compartment, with a cut-off point at 300 seconds. Percent improvement for the tested compounds were evaluated taking the difference between the retention latency of the untreated group and that of the control group as 100%.

acetylcholinesterase = acetylcholinesterase (Homo sapiens, UniProt P22303); assay: Inhibitive effect on acetylcholinesterase activity (anti-acetylcholinesterase activity); type: biochemical
Chain of acetylcholinesterase (P22303 32-614): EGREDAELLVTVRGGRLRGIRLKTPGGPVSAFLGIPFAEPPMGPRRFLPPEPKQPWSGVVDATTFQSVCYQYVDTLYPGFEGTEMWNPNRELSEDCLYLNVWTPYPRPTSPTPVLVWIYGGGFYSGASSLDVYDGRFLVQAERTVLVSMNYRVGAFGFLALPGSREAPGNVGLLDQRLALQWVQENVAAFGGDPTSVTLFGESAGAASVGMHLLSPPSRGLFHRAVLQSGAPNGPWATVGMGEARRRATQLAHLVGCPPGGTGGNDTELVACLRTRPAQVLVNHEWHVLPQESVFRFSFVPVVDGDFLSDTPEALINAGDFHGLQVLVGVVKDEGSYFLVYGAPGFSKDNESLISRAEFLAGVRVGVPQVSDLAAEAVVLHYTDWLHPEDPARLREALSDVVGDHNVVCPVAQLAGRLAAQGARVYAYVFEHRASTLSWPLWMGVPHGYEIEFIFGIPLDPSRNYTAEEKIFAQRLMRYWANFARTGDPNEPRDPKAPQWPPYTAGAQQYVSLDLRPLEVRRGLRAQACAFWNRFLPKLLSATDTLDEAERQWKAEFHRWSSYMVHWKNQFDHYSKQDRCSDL
Procedure: Pharmacological action of the compound of the present invention was tested using several compounds prepared in Examples presented hereinafter and 9-amino-1,2,3,4-tetrahydroacridine (Tacrine) as a comparative compound.
Specific activities for the tested compounds were calculated using the following equation. [formula]

[2] = test system: Amnesia Induced by Scopolamine in Rats; assay: Effects on amnesia induced by scopolamine in rats (passive avoidance test); type: in vivo, Male Wister rats; conditions: p.o., 15 min after scopolamine hydrochloride 0.5 mg/kg i.p.
Procedure: Male Wister rats, 8 week old, were used as subjects. A conventional two-compartment box was used for the passive avoidance test.
Tested compounds were given p.o. 15 minutes after scopolamine hydrochloride (0.5 mg/kg, i.p.). At 15 minutes after the tested compound treatment, scrambled foot-schock (0.5 mA for 3 seconds) was applied to the rat immediately after entry into the dark compartment. Retention was measured 24 hours after the training and was expressed as the mean latency to enter the dark compartment, with a cut-off point at 600 seconds. Percent improvement for the tested compounds was evaluated taking the difference between the retention latency of the untreated group and that of the control group as 100%.

[3] = test system: senile dementia patients of Alzheimer type; conditions: Tacrine and lecithin; The New England Journal of Medicine, 315, 1241 (1986); cited from earlier work

SMILES	Percent Improvement ([1]; 0.01 mg/kg)	Percent Improvement ([1]; 0.3 mg/kg)	Anti-acetylcholinesterase Activity (Specific Activity) (acetylcholinesterase)	Percent Improvement ([1]; 0.1 mg/kg)	Percent Improvement ([2]; 0.03 mg/kg)	Percent Improvement ([2]; 0.1 mg/kg)	Percent Improvement ([2]; 0.3 mg/kg)	Percent Improvement ([1]; 0.03 mg/kg)	improvement in symptoms of senile dementia patients of Alzheimer type [3]	Percent Improvement ([1]; 1.0 mg/kg)
N#Cc1ccccc1NC1=CC(=O)N(CCC2CCN(Cc3ccccc3)CC2)C1 [Compound 2, N-(1-(4-(1-benzylpiperidyl)ethyl)-2-oxo-3-pyrrolin-4-yl)-2-aminobenzonitrile]	10.0%	72.8%	7.7							
N#Cc1ccccc1NC1=CC(=O)N(CCCC2CCN(Cc3ccccc3)CC2)C1 [Compound 3, N-(1-(4-(1-benzylpiperidyl)propyl)-2-oxo-3-pyrrolin-4-yl)-2-aminobenzonitrile]		53.4%	13.5	16.0%						
Nc1c2c(nc3ccccc13)CN(CCC1CCN(Cc3ccccc3)CC1)C2=O [Compound 7, 9-Amino-2-(4-(1-benzylpiperidyl)ethyl)-2,3-dihydropyrrolo-[3,4-b]quinolin-1-one]			1.94	70.2%	36.1%	68.9%	69.8%	52.0%		
Cl.Cl.Nc1c2c(nc3ccccc13)CCC(CCC1CCN(Cc3ccccc3)CC1)C2=O (stereo not drawn) [Compound 14, 9-amino-2-(2-(1-benzylpiperidin-4-yl)ethyl)-1,2,3,4-tetrahydroacridin-1-one dihydrochloride]			5.00	71.9%		0%	50.8%	50.0%		
Nc1c2c(nc3ccccc13)CCC(CCCCC1CCN(Cc3ccccc3)CC1)C2=O (stereo not drawn) [Compound 46, 9-Amino-2-(4-(1-benzylpiperidin-4-yl)butyl)-1,2,3,4-tetrahydroacridin-1-onedihydrochloride]			47.62			32.3%	39.1%			
O=C1c2c(nc3ccccc3c2O)CN1CCC1CCN(Cc2ccccc2)CC1 [Compound 61, 9-hydroxy-2-(4-(1-benzylpiperidyl)ethyl)-2,3-dihydropyrrolo[3,4-b]quinolin-1-one]					33.0%	86.1%	86.5%			
COc1c2c(nc3ccccc13)CN(CCC1CCN(Cc3ccccc3)CC1)C2=O [Compound 67, 9-methoxy-2-(4-(1-benzylpiperidyl)ethyl)-2,3-dihydropyrrolo[3,4-b]quinolin-1-one]			9.52		50.4%	92.0%	95.8%			
Nc1c2c(nc3ccccc13)CCCC2 [Tacrine, 9-amino-1,2,3,4-tetrahydroacridine, reference compound]				0%					effectiveness	26.9%
